Read-outs that look alike come from different tables or passages of the source.
Columns and labels:
Type in all cases: cell-based
hERG channel = biological target: T1, hERG channel (Homo sapiens, UniProt Q12809); test: hERG channel inhibition assay (Qpatch whole-cell recording, CHO cells expressing hERG); conditions: for IC50: Table 3, highest test concentration 40 µM, read-out: inhibitory activity IC50 hERG
T1 construct: expressed in transfected cells; host or cells: CHO
Method: (§1) CHO cells expressing hERG protein were cultured in 175cm^2 culture flasks. When the cell density grew to 60-80%, the culture medium was removed, and the cells were washed with 7mL PBS, and then 3mL Detachin was added for digestion. After digestion was complete, 7mL culture medium was added for neutralization, and then centrifuged, the supernatant was aspirated, and 5mL culture medium was added for resuspending to ensure that the cell density was 2-5×10^6/mL.
(§2) The single-cell high-impedance sealing and whole-cell pattern formation process were all automatically completed by the Qpatch instrument. After obtaining the whole-cell recording mode, the cell was clamped at -80 mV. […] This voltage stimulus was applied every 15 seconds. After recording for 2 minutes, the extracellular solution was recorded for 2 minutes, and then the drug administration process began. The compound concentration started from the lowest test concentration, and each test concentration was given for 2 minutes. After all concentrations were given continuously, the positive control compound 10 µM Cisapride was given. At least 3 cells (n≥3) were tested for each concentration.
(§3) The stock solution of compound was diluted with extracellular solution, 5 µL of 20 mM compound stock solution was added to 2495 µL of extracellular solution, 500 times diluted to 40 µM, and then 3 times serial dilution was performed in the extracellular solution containing 0.2% DMSO to obtain the final concentration to be tested.
(§4) (5) Data analysis: The experimental data were analyzed by XLFit software.

hTRPC3 = biological target: T2, hTRPC3 (Homo sapiens, UniProt Q13507); test: TRPC3 inhibitory activity assay (FLIPR calcium fluorescence); conditions: for relative selectivity TRPC3/ TRPC5: ratio of IC50 values
T2 construct: expressed in transfected cells; host or cells: HEK-293
T2 sequence (Q13507 1-921): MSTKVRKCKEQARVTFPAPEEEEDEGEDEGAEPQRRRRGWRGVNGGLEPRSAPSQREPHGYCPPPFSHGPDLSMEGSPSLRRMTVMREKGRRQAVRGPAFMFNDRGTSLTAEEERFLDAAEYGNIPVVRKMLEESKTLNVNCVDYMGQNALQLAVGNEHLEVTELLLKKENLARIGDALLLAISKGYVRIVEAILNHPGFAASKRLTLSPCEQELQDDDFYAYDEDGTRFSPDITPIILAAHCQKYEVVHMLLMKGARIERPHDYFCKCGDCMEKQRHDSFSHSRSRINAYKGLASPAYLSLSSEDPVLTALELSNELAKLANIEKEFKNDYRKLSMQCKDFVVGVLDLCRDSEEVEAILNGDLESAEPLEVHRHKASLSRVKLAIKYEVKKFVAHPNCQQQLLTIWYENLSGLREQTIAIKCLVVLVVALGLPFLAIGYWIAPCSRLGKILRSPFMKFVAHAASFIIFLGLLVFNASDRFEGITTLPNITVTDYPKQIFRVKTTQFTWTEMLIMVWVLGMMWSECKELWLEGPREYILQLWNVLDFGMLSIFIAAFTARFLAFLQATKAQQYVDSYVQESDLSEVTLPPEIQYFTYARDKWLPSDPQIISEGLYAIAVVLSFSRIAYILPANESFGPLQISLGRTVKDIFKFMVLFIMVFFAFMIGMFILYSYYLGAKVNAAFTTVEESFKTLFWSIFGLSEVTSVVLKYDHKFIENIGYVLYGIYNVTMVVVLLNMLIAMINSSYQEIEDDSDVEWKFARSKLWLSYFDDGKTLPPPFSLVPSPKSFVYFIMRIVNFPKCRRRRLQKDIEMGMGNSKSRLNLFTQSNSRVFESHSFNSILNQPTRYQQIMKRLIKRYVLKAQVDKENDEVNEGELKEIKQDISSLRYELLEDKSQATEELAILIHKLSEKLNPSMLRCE
Method: HEK-293 cells expressing hTRPC3, hTRPC4 or hTRPC5 were seeded into black-bottomed 96-well plates coated with poly-lysine (PDL), with 2×10^4 cells per well. After 8 h of culture, the original culture medium was discarded, and 60 µL of Fluo-4/AM dye with a final concentration of 4 µM was added. The plates were incubated at 37 °C for 60 min, and then rinsed five times with calcium flow detection buffer. […] Then, the agonist Englerin A (EA) (MedChemExpress, Shanghai, China, final concentration of 0.3nM) was added, and the fluorescence signal was collected for 600 seconds. The fluorescence signal of the trajectory diagram is represented by F/F0, wherein F is the fluorescence signal at different time points, and F0 is the basic fluorescence signal, that is, the average value of the fluorescence signal at the first 10 time points. […] The area under the curve of the change in fluorescence intensity after adding EA was calculated. IC50 value was calculated using log[Inhibitor] vs. response - Variable slope, taking into account the area under the curve and the log value of the concentration of the compound.

[1] = biological target: T3, hERG channel (relative to TRPC5) (Homo sapiens, UniProt Q12809); test: hERG channel inhibition assay (Qpatch whole-cell recording, CHO cells expressing hERG); conditions: human, CHO cells expressing hERG; ratio of IC50 values
T3 construct: expressed in transfected cells; host or cells: CHO
Method: as §1, §2, §3, §4

[2] = Table 3, read-out: inhibitory activity IC50 TRPC3

T3 sequence (Q12809 whole entry): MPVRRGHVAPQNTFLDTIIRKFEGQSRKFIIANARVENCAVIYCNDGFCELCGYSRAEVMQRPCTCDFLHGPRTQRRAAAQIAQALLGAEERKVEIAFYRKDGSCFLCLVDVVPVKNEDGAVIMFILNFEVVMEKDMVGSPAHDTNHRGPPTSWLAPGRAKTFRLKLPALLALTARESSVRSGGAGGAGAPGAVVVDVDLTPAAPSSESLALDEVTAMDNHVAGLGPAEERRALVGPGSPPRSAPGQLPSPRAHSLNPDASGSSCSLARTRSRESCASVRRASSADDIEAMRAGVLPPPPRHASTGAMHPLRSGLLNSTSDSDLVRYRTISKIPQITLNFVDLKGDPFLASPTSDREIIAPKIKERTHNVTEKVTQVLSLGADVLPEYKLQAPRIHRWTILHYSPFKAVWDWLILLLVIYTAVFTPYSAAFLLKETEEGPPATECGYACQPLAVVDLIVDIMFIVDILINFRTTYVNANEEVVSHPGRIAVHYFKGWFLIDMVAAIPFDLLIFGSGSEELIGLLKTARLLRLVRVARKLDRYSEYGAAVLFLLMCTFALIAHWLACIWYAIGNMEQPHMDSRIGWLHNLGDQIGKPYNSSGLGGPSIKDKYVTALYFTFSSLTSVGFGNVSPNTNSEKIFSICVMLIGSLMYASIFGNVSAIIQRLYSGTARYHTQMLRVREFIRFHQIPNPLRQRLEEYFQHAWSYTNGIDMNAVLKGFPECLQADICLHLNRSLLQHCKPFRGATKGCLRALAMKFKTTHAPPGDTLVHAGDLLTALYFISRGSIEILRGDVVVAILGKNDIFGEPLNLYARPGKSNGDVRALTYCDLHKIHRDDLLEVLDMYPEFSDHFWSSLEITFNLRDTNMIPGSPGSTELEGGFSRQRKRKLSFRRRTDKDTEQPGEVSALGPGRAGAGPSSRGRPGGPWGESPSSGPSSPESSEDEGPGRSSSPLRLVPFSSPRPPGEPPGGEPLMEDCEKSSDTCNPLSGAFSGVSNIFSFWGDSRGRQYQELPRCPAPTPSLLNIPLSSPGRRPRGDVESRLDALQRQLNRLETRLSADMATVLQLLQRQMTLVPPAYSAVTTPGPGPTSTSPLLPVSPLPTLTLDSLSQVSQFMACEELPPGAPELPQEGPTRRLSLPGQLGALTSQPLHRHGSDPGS
T1 sequence (Q12809 whole entry): as above

Compound	IC50 (hERG channel) [µM]	selectivity ratio (hERG channel; ratio of IC50 values, read-out: relative selectivity hERG/ TRPC5)	IC50 (hTRPC3) [µM]	relative selectivity TRPC3/ TRPC5 (hTRPC3)	selectivity ratio at 2 min [1]	IC50 (hTRPC3; [2]) [µM]
Cn1c(=O)n(CCCO)c(=O)c2c1nc(C1(F)CCC(C(F)(F)F)CC1)n2Cc1ccc(F)c(F)c1 (centres unmarked) [Example E52]	> 40	> 30800	2.53	1946		
Cn1c(=O)n(CCCO)c(=O)c2c1nc(C1(F)CCC(C(F)(F)F)CC1)n2Cc1ccc(Cl)cc1 (centres unmarked) [Example E21, 7-(4-chlorobenzyl)-8-(1-fluoro-4-(trifluoromethyl)cyclohexyl)-1-(3-hydroxypropyl)-3-methyl-3,7-dihydro-1H-purine-2,6-dione]	> 40			555	> 7840	2.83
Cn1c(=O)n(CCCO)c(=O)c2c1nc(C1(F)CCC(F)(F)CC1)n2Cc1ccc(F)c(Cl)c1 [Example E68, 7-(3-chloro-4-fluorobenzyl)-1-(3-hydroxypropyl)-3-methyl-8-(1,4,4-trifluorocyclohexyl)-3,7-dihydro-1H-purine-2,6-dione]	> 40				> 69000	
COC1CCC(F)(c2nc3c(c(=O)n(CCCO)c(=O)n3C)n2Cc2ccc(Cl)cc2)CC1 (centres unmarked) [Example E32, 7-(4-chlorobenzyl)-8-(1-fluoro-4-methoxycyclohexyl)-1-(3-hydroxypropyl)-3-methyl-3,7-dihydro-1H-purine-2,6-dione]	7.52			> 980	737	> 10
